Earlier results, collected in patent publication US8071577B2, “Multi-phase contraceptive preparation based on a natural estrogen” (Bayer Pharma Aktiengesellschaft, priority 2004, dated 2011).

Test system: ovulation
Conditions: daily dose known from the literature

| Structure (SMILES) | ovulation-inhibitory dose |
| --- | --- |
| C[C@]12CCC3=C4CCC(=O)C=C4CC[C@H]3[C@@H]1CC[C@@]2(O)CC#N [dienogest] | 1.0 mg a day |
| C[C@]12CCC(=O)C=C1[C@@H]1C[C@@H]1[C@H]1[C@@H]3[C@@H]4C[C@@H]4[C@@]4(CCC(=O)O4)[C@@]3(C)CC[C@@H]12 [drospirenone] | 2.0-3.0 mg a day |
